Like-named read-outs stand apart in the source and are kept apart here.

In one test the test system is T cells (Molt 4). Put plainly: Inhibition of the growth of T cells (Molt 4). In kind it is cell-based. The conditions noted are these: Homo sapiens, read-out: I50, growth of Molt 4 cells. The protocol: (§1) The compounds of the invention were tested for inhibition of the growth of T cells (Molt 4) and B cells (IM9) by the method of Averett, D., Journal of Virological Methods, 23, (1989), 263-276.

For test [1], the system named is Human cytomegalovirus (HCMV). Put plainly: Anti-HCMV plaque reduction assay in MRC5 cells. In kind it is cell-based. The conditions noted are these: Human betaherpesvirus 5, read-out: IC50, anti-HCMV activity (50% inhibitory concentration). As to the method:
Human cytomegalovirus (HCMV) is assayed in monolayers of MRC5 cells (human embryonic lung) in multiwell trays. Activity of compounds is determined in the plaque reduction assay, in which a cell monolayer is infected with a suspension of HCMV. A range of concentrations of the compound to be tested (of known molarity) is then incorporated into the carboxymethyl cellulose overlay. Plaque numbers of each concentration are expressed as percentage of the control and a dose-response curve is drawn. From this curve the 50% inhibitory concentration (IC50) is estimated.

For a further test, the system named is B cells (IM9). Description: Inhibition of the growth of B cells (IM9). Type of test: cell-based. The conditions noted are these: Homo sapiens, IM-9; read-out: I50, growth of IM9 cells. As to the method: as §1
Test [2] concerns HBV (HepG2 2.2.15, P5A cell line). Description: Anti-HBV assay: HBV DNA in supernatants of HBV-producing cells, immunoaffinity capture, PCR and hybrid-capture detection. Type of test: cell-based, Hepatitis B virus. The conditions noted are these: HepG2 2.2.15, P5A cells, compound on days 1, 3, 5, 7. As to the method: Anti-HBV activity of compounds of formula (I) and (I-1) was determined with a high-capacity assay for assessing efficacy. Supernatants from growing HBV-producing cells (HepG2 2.2.15, P5A cell line) in 96-well plates are applied to microtiter plate wells which have been coated with a specific monoclonal antibody to HBV surface antigen (HBsAg). Virus particles present in the supernatants bind to the antibody and remain immobilized while other debris is removed by washing. These virus particles are then denatured to release HBV DNA strands which are subsequently amplified by the polymerase chain reaction and detected with a colorimetric hybrid-capture assay. Quantitation is achieved through fitting of a standard curve to dilutions of a cell supernatant with known HBV DNA content. By comparing HBV DNA levels of untreated control cell supernatants with supernatants containing a compound of formula (I) or (I-1), a measure of anti-HBV effectiveness is obtained.
HBV producer cells, 2500 cells/well, were seeded in 96-well culture dishes in RPMI/10% fetal bovine serum/2 mM glutamine (RPMI/10/2:). […] Twenty-five uL HBV standard media dilutions in RPMI/10/2 were added to 2 rows of wells to serve as an internal standard curve for quantitation, and the plates were sealed and incubated at 4° C. overnight. […]
Polymerase chain reaction (Saiki, R. K. et al., Science, 239 (4839) 487-91 (1988)) was carried out on 5uL samples, using a Perkin Elmer PCR kit. […] Primers were chosen from conserved regions in the HBV genome, as determined by alignment of several sequences. […]
PCR products were detected with horse radish peroxidase-labeled oligonucleotide probes (Synthecell Corp., Rockville, Md. 20850), which hybridize to biotinylated strands of denatured PCR products directly in streptavidin-coated microtiter plate wells, using essentially the method of Holodiniy, M. et al., Bio Techniques, 12 (1) 37-39 (1992). […] Quantities of HBV DNA present in the original samples were calculated by comparison with standards. […]

Where [3] appears, read: Hepatitis B virus, HepG2 2.2.15, read-out: IC50 (median inhibitory concentration, 50 percent decrease in HBV DNA), approximate IC50.

Take `OC[C@@H]1C[C@H](n2c(Br)nc3cc(Cl)c(Cl)cc32)[C@@H](O)[C@H]1O` (relative stereo) [Ex. 4, (±)-(1R*,2S*,3S*,5S*)-5-(2-Bromo-5,6-dichloro-1H-benzimidazol-1-yl)-3-(hydroxymethyl)-1,2-cyclopentanediol]: the values for the IC50 (in the test on T cells (Molt 4); in test [1]; in the test with B cells (IM9)) were 39 µM, 1.9 µM and 48 µM, respectively.
On to `OC[C@@H]1C[C@@H](O)[C@H](n2c(Br)nc3cc(Cl)c(Cl)cc32)C1` (relative stereo) [Ex. 13, (±)-(1R*,2R*,4S*)-2-(2-Bromo-5,6-dichloro-1H-benzimidazol-1-yl)-4-(hydroxymethyl)cyclo-pentanol], for which the IC50 was determined as 32 µM with T cells (Molt 4), 1 µM in test [1], 5 µM in test [2] (setting [3]) and 88 µM in the test on B cells (IM9).
For `OC[C@@H]1C[C@H](n2c(Br)nc3cc(Cl)c(Cl)cc32)[C@@H](O)[C@H]1O` [Ex. 69, (1R,2S,3S,5S)-5-(2-Bromo-5,6-dichloro-1H-benzimidazol-1-yl)-3-(hydroxymethyl)-1,2-cyclopentanediol], the IC50 is 29 µM with T cells (Molt 4); 0.72 µM in test [2] (setting [3]); 1.3 µM in test [2] (read-out: IC50 (median inhibitory concentration, 50 percent decrease in HBV DNA), approximate IC50); 35 µM in the test with B cells (IM9).
